“Also recorded” adds a separate entry of the source. Blank lines part the entries; values can stand above or below the compound they belong to.
Columns and labels:
[1] = Survival after lethal irradiation and bone marrow transplantation; assay type: in vivo; details: cisplatin-treated mice plus agent
Method: To protect from kidney damage, mice were simultaneously subcutaneously (s.c.) injected with 1 mL of saline solution.
(§1) To induce acute peripheral sympathectomy, mice received two i.p. injections of 60HDA (Sigma; 100 mg/kg on day 0; 250 mg/kg on day 2). Three days after the last injection of 60HDA mice were euthanized for analysis, transplanted (see below) or injected with 5-fluorouracil (see below).
(§2) Mice were irradiated (1,200 cGy, two split doses, 3 hours apart) in a Cesium Mark 1 irradiator (JL Shepperd & associates). Three hours later, the indicated number of BMNCs was injected retroorbitally in the irradiated recipients under isoflurane (Phoenix Pharmaceuticals) anesthesia. Mice were allowed to recover and analyzed at the indicated time points.
(§3) To induce neuroprotection from 60HDA, mice were injected with 4-MC (10 μg/kg; i.p.) or GDNF-Fc (5 μg per mice; s.c.) for 5 days, starting the treatment the same day as the first injection of 60HDA.

bone marrow [2] = experiment: Bone marrow hematopoietic recovery after transplantation (BMNC, CFU-C, Lin-Sca1+c-kit+flt3- cells); assay type: in vivo, mice
Method: as §2, with “points. […]” for “points.”
(§4) Blood was harvested by retro-orbital sampling of mice anesthetized with isoflurane and collected in polypropylene tubes containing ethylenediaminetetraacetic acid (EDTA). Blood parameters were determined with an AcT differential counter (Beckman-Coulter). CFU-C assays were performed as described in He et al., Ann. Rev. Cell. Dev. Biol. 25:377 (2009), incorporated herein by reference. For flow cytometry, red blood cells were lysed thrice for 5 minutes at 4° C. in 0.15 M NH4Cl, cells were washed once in ice-cold PBS and counted in a hemocytometer. To determine Lin^−Sca1^+c-kit^+ or Lin^−Sca1^+c-kit^+ft13^− numbers, 10^6 cells were stained with the Mouse Lineage Panel (BD Biosciences) together with FITC-conjugated anti-Sca-1 antibody (BD Biosciences), PE-Cy7-conjugated anti-c-kit antibody (eBioscience) and PE-conjugated anti-flt3 antibody (eBioscience). Cells were further stained with streptavidin-Cy5 (Jackson Immunotech) and analyzed with a BD LSR11 system (BD Biosciences). Bone marrow was harvested by flushing the bone with 1 mL of ice-cold PBS, red blood cells were lysed once for 5 minutes at 4° C. in 0.15 M NH4Cl, cells were washed once in ice-cold PBS and counted with a hemocytometer. CFU-C and Lin^−Sca1^+c-kit^+ft13^− numbers were determined as above. In some experiments, CD150^+CD48^− cell numbers were determined by staining 5×10^6 cells with PE-anti-CD48 antibody (BD Biosciences) and PE-Cy7-anti-CD150 antibody (Biolegend).

TH+ fibers = experiment: Immunofluorescence quantification of TH+ sympathetic fibers in bone marrow / calvaria
Method: Bones were collected and fixed for 1 hour in 4% paraformaldehyde (PFA) in PBS (Electron Microscopy Sciences) at 4° C. They were then post-fixed overnight in 1% PFA in PBS at 4° C. and cryoprotected for 24 hours in 30% sucrose. Bones were then included in OCT (Tissue Tek), sectioned (14 μm sections) in a Cryostat, and mounted on CFSA 4× Slides (Leica). TH^+ immunofluorescence staining was performed as previously described in Mendez-Ferrer, et al., Nature 452:442 (2008), incorporated herein by reference. For each mouse analyzed, the number of nerve fibers in 6 fields was quantified and plotted as per mm^2. For whole-mount immunofluorescence, calvaria were harvested by cutting along the temporal lines of the skull and immediately fixed in methanol. Bone tissues were blocked/permeabilized in PBS containing 20% FCS and 0.5% Triton and stained with APC-conjugated anti-PECAM CD31 antibody and TH (Millipore). Signal amplification for TH staining was achieved by using a signal amplification kit (Perkin Elmer). Whole-mount tissues were imaged face-down on an upright Olympus BX61WI microscope. The area between the frontal and parietal bones was identified by moving along the coronal suture and images were obtained from the same area for all mice, along the coronal vein on either side of the central vein. The numbers of individual nerve fibers running alongside blood vessels were quantified and plotted as per 100 μm vessel segment. All images were processed using Slidebook software (Intelligent Imaging Innovations, Inc.).

[3] = Survival after 5FU injection in 60HDA-sympathectomized mice; assay type: in vivo; details: 60HDA-lesioned mice plus agent
Method: as §1
(§5) To induce bone marrow ablation and force quiescent HSC to proliferate, 5FU (250 mg/kg; Sigma) was injected i.v. under isoflurane (Phoenix Pharmaceuticals) anesthesia. Mice were allowed to recover and analyzed at the indicated time points.
as §3

Nestin+ niche cells = experiment: HSC niche cell analyses (Nestin+ cells, osteoblasts, endothelial cells, macrophages, α-SMA+ cells); assay type: in vivo
Source text: Since the SNS directs HSC trafficking by acting on Nestin^+ niche cells through the β3 adrenergic receptor, the changes that occurred in the HSC niche after SNS injury and genotoxic insult were investigated. […] The reason for reduced Nestin^+ numbers in SNS-injured mice during BM recovery was then investigated.

bone marrow [4] = experiment: Bone marrow regeneration after 5FU (or sublethal irradiation) in 60HDA-sympathectomized mice; assay type: in vivo
Method: as §1, §5, §3, §4

β3 adrenergic receptors = biological target: T1, β3 adrenergic receptors (Mus musculus, UniProt P25962); experiment: β3 adrenergic blockade during 5FU-induced BM regeneration; assay type: in vivo, mice
T1 construct: β3 adrenergic receptors expressed by niche cells; from tissue; host or cells: live mice (wild-type or Adrb2-/-); receptor expressed by bone marrow niche cells
Method: as §5
To investigate the role of β2 or β3 adrenergic receptors in bone marrow regeneration, β3 adrenergic signaling was blocked in wild-type or Adrb2^tm1Bkk/J mice by injecting the β3-specific antagonist SR59230A (5 mg/kg, i.p.; Sigma), daily for 3 days.

[5] = 60HDA-lesioned mice plus agent, 12 days after 5FU
[6] = cisplatin-treated mice plus 4-MC

T1 sequence (P25962 whole entry): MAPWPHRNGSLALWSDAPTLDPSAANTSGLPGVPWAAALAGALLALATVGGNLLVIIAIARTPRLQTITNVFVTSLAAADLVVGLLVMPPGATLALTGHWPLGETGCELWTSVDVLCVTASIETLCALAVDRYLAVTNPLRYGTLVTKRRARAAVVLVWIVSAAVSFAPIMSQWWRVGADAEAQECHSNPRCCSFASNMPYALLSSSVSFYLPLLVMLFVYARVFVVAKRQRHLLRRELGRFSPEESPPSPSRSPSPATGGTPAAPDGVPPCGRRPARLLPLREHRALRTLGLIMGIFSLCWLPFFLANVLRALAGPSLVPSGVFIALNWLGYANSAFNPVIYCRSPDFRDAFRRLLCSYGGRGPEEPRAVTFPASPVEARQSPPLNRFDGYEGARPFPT

Structure (SMILES): Cc1ccc(O)c(O)c1 [4-MC, 4-methylcatechol]
survival after transplantation with neuroprotective agent [1]: no death was observed; also recorded: completely abolished transplant-associated death; also recorded: completely prevented neuropathy-induced death
HSC frequency and absolute numbers (LTC-IC, competitive repopulation assays) (bone marrow [2]; cisplatin-treated mice plus 4-MC, after transplantation): higher frequency and absolute numbers of HSC
bone marrow regeneration after transplantation with neuroprotective agent (BM cellularity, progenitor counts, LSKF cells) (bone marrow [2]; cisplatin-treated mice plus agent, one month after transplantation): accelerated bone marrow regeneration; also recorded: significantly improves hematopoietic cell counts
TH+ / SNS fiber recovery (TH+ fibers; [5]): induced TH^+ fiber recovery; also recorded: significant recovery in the number of BM SNS fibers; also recorded: protects sympathetic fibers
increase in bone marrow TH+ fiber density (TH+ fibers; cisplatin+4-MC compared to cisplatin+saline, p<0.05): 2 fold
survival after 5FU with neuroprotective agent [3]: completely protected from death; also recorded: completely abolished 5FU-associated cell death
Nestin+ cell number 12 days after 5FU (Nestin+ niche cells; 60HDA mice plus 4-MC): restored normal Nestin^+ cell number
SNS-injury-induced expansion of Nestin+ cells and osteoblasts prior to 5FU (Nestin+ niche cells; 60HDA mice plus 4-MC): abolished the expansion
other niche cells (endothelial cells, BM macrophages, perivascular α-SMA cells) (Nestin+ niche cells; 60HDA mice plus 4-MC, before or after 5FU): did not affect other niche cells
endothelial cells, BM macrophages, perivascular α-SMA+ cells before BMT (Nestin+ niche cells; [6]): without affecting
expansion in Nestin+ cells and osteoblasts before BMT (Nestin+ niche cells; [6]): ameliorated the expansion
HSC recovery by competitive repopulation assays (bone marrow [4]; 60HDA-lesioned mice plus 4-MC, after 5FU): significant increase in HSC recovery
hematopoietic recovery after 5FU with neuroprotective agent (BM, LSKF cells) (bone marrow [4]; [5]): increased hematopoietic recovery; also recorded: significantly increased
BM recovery after 5FU in Tα1-Cre:TrkANeo/Neo mice (bone marrow [4]; sympathectomized mice treated with 4-MC, TrkA restricted to nervous system): recovery comparable to that of wild-type mice

Structure (SMILES): CCc1ccccc1OC[C@@H](O)CN[C@H]1CCCc2ccccc21 [SR59230A]
hematopoietic regeneration after 5FU with both β2 and β3 receptors disrupted (β3 adrenergic receptors; Adrb2-/- mice plus SR59230A): most severe impairment; also recorded: severe impairment in hematopoietic regeneration
hematopoietic recovery after 5FU under β3 blockade (β3 adrenergic receptors; wild-type mice, SR59230A alone): sufficient to impair hematopoietic regeneration; also recorded: partially compromised hematopoietic recovery

Structure (SMILES): N.N.O=C([O-])C1(C(=O)[O-])CCC1.[Pt+2] [carboplatin]
hematopoietic recovery in BM after transplantation (progenitors, Lin-Sca1+c-kit+flt3- cells, total BM) (bone marrow [2]; about 4 weeks / 30 days post-transplantation, vs saline): not

BM recovery 3 months after transplantation (bone marrow [2]; mouse, in vivo): not yet completely recovered
HSC content by competitive repopulation assays (bone marrow [2]; mouse, in vivo): reduced HSC content
Structure (SMILES): CC[C@]1(O)C[C@H]2CN(CCc3c([nH]c4ccccc34)[C@@](C(=O)OC)(c3cc4c(cc3OC)N(C=O)[C@H]3[C@@](O)(C(=O)OC)[C@H](OC(C)=O)[C@]5(CC)C=CCN6CC[C@]43[C@@H]65)C2)C1 [vincristine]

From patent publication US20130230580A1, “Administration of SNS Neuroprotective Agents to Promote Hematopoietic Regeneration” (priority 2010, published 2013)
